Results on nine compounds are retold here after patent US7541495B2, “para-alkyl-substituted N-(4-hydroxy-3-methoxy-benzyl)-cinnamamides, pharmaceutical compositions and uses thereof” (Gruenenthal GmbH, priority 2004, dated 2009).

For orientation: EC50 means the concentration giving half of the maximal effect. A higher EC50 goes with weaker potency.

Assay [1] has as its target T1, rat vanilloid receptor 1 (VR1/TRPV1) (Rattus norvegicus, UniProt O35433).
T1 construct: expressed in transfected cells; host or cells: CHO K1 cells (ECACC)
The experiment in a line: FLIPR Ca2+ influx functional study on rat vanilloid receptor 1. The format is cell-based. Particulars: CHO K1 cells transfected with rat VR1; for Emax at 10 µM: test substance 10 μM, Ca2+ signal relative to 10 μM capsaicin, read-out: VR1 (Rat) (% Stimulation compared with 10 μM CP). An excerpt:
(§1) 1. Functional Study on the Vanilloid Receptor 1 (VR1/TRPV1 Receptor)
(§2) The agonist activity or antagonist activity of the substances to be tested on the vanilloid receptor 1 (VR1/TRPV1) of the species human and rat can be determined using the following assay. According to this assay, the Ca^2+ influx through the channel is quantified by means of a Ca^2+-sensitive dye (type Fluo-4, Molecular Probes Europe BV, Leiden, Netherlands) in the Fluorescent Imaging Plate Reader (FLIPR, Molecular Devices, Sunnyvale, USA).
(§3) Chinese hamster ovary cells (CHO K1 cells, European Collection of Cell Cultures (ECACC), England) are stably transfected with the human or rat vanilloid receptor 1 (VR1) gene. For functional studies, these cells are plated out in a density of 25,000 cells/well on poly-D-lysine-coated, black 96-well plates having a clear base (BD Biosciences, Heidelberg, Germany). The cells are incubated overnight at 37° C. and 5% CO2 in culture medium (Nutrient Mixture Ham's F12, Gibco Invitrogen GmbH, Karlsruhe, Germany) with 10% v/v of FBS (fetal bovine serum, Gibco Invitrogen GmbH, Karlsruhe, Germany) and 18 μg/ml of L-proline (Gibco Invitrogen GmbH, Karlsruhe, Germany). On the following day, the cells are charged with 2 μM of Fluo-4 and 0.01% v/v of Pluronic F127 (Molecular Probes Europe BV, Leiden, Netherlands) in HBSS buffer solution (Hank's buffered saline solution, Gibco Invitrogen GmbH, Karlsruhe, Germany) for 30 minutes at 37° C. The plates are then washed three times with HBSS buffer solution and, after incubation for a further 15 minutes at room temperature, used in the FLIPR assay for Ca^2+ measurement. The Ca^2+-dependent fluorescence is measured before and after the addition of test substances (λex=488 nm, λem=540 nm). Quantification is effected by measuring the highest fluorescence intensity (FC, fluorescence counts) over time.
(§4) The FLIPR protocol consists of two additions of test substance. Test substances (10 μM) are first pipetted onto the cells and the Ca^2+ influx is compared with the control (capsaicin 10 μM). This gives the percentage activation, based on the Ca^2+ signal after the addition of 10 μM of capsaicin (CP). After 5 minutes' incubation, 100 nM of capsaicin are applied and the influx of Ca^2+ is likewise determined. Desensitizing agonists and antagonists lead to suppression of the Ca^2+ influx. The percentage inhibition compared with the maximum achievable inhibition is calculated using 10 μM of capsaicin. In order to determine the EC50 values, the substances are added in various concentrations. Determinations are carried out in triplicate (n=3) and these are repeated in at least three independent experiments (N=4).
(§5) The agonist activity or antagonist activity was determined on human and rat vanilloid receptor 1 (VR1/TRPV1 receptor) using the above-described FLIPR assay.

The target in assay [2] is T2, human vanilloid receptor 1 (VR1/TRPV1) (Homo sapiens, UniProt Q8NER1).
T2 construct: expressed in transfected cells; host or cells: CHO K1 cells (ECACC)
T2 sequence (Q8NER1 whole entry): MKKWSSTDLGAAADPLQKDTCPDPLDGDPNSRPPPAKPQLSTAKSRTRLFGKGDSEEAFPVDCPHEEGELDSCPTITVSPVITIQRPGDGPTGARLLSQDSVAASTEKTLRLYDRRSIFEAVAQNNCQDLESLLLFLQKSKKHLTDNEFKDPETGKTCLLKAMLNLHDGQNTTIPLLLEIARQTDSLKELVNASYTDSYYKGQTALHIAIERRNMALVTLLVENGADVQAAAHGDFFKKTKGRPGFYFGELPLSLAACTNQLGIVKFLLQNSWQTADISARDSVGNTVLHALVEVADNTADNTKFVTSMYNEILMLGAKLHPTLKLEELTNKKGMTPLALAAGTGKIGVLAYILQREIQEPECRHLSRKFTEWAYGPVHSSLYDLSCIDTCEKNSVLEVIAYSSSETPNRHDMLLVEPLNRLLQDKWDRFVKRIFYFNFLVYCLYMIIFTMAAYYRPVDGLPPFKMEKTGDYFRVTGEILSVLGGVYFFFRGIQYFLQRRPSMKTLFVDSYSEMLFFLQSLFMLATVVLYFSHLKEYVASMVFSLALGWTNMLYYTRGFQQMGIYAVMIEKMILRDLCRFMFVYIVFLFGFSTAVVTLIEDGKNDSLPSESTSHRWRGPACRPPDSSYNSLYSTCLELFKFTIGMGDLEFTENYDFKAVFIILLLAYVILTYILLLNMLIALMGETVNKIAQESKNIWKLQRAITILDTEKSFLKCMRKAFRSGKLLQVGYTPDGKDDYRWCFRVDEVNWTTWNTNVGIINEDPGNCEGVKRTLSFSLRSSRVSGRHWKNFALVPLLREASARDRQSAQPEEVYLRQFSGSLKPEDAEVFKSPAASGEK
The experiment in a line: FLIPR Ca2+ influx functional study on human vanilloid receptor 1. The format is cell-based. Particulars: CHO K1 cells transfected with human VR1; for Emax at 10 µM: test substance 10 μM, Ca2+ signal relative to 10 μM capsaicin, read-out: VR1 (Human) (% Stimulation compared with 10 μM CP).
Description: as §1, §2, §3, §4, §5

Assay [3] deals with phenylquinone-induced writhing in mice. Nature of the assay: Phenylquinone-induced writhing test on mice. To be noted: phenylquinone i.p. 10 min after dose. It counts as in vivo, male NMRI mice. The procedure:
2. Analgesic Test Using the Writhing Test on Mice
The analysis of analgesic activity in the compounds of the invention of formula is carried out using the phenylquinone-induced writhing assay in mice, modified as described in the article by I. C. Hendershot and J. Forsaith (1959) in J. Pharmacol. Exp. Ther. 125, 237-240. The relevant description is incorporated herein by reference and is to be regarded as part of the present disclosure.
For the present purpose, male NMRI mice are used having a weight of from 25 to 30 g. Groups of 10 animals per substance dose received, 10 minutes after an intravenous dose of test substances, an intraperitoneal administration of 0.3 ml/mouse of a 0.02% strength aqueous solution of phenylquinone(phenylbenzoquinone, obtainable from Sigma, Deisenhofen; solution produced with the addition of 5% of ethanol and storage in a water bath at 45° C.). The animals were placed individually in observation cages. Using a pushbutton counter, the number of pain-induced stretching movements (so-called writhing reactions=straightening of the body accompanied by stretching of the rear extremities) was counted over a period of from 5 to 20 minutes following the administration of phenylquinone. The control is provided by animals receiving only physiological saline. […]

T1 sequence (O35433 whole entry): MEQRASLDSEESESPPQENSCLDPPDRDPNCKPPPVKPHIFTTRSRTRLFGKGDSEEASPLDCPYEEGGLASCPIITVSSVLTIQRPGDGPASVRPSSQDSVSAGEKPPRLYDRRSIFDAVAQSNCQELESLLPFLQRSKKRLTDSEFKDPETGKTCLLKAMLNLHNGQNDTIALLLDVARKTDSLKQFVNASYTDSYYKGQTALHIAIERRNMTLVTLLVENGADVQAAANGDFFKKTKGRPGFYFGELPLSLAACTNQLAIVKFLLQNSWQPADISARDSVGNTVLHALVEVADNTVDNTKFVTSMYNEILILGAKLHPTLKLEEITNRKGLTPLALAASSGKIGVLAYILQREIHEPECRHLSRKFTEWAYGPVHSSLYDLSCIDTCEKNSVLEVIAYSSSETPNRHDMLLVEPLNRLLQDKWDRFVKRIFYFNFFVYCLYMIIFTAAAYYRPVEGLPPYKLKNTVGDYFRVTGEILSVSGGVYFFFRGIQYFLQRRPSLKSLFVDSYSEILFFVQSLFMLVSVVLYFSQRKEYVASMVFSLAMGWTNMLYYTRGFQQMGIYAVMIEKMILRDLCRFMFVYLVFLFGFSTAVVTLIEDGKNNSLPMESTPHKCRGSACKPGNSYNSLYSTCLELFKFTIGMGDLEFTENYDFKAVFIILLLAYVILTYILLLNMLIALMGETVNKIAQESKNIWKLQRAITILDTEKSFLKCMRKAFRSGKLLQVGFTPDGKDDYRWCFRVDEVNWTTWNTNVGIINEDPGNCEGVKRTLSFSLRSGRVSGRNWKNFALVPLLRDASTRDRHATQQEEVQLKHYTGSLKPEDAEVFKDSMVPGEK

Consider `CCCc1ccc(/C=C/C(=O)NCc2ccc(O)c(OC)c2)cc1` [Example 5, para-propyl-trans-N-(4-hydroxy-3-methoxybenzyl)-cinnamic acid amide], for which the values for the Emax at 10 µM in assay [1] and in assay [2] were 119% and 102%, respectively. Moreover, in assay [3] (0.316 mg/kg i.v.), the “Reduction of Nociceptive Behavior Relative to Controls” value amounted to 55%.

For the compound `CCc1ccc(/C=C/C(=O)NCc2ccc(O)c(OC)c2)cc1` [Example 2, para-ethyl-trans-N-(4-hydroxy-3-methoxybenzyl)-cinnamic acid amide], the Emax at 10 µM turned out to be 84% in assay [1] and 71% in assay [2]. Besides, the “Reduction of Nociceptive Behavior Relative to Controls” value in assay [3] (0.1 mg/kg i.v.) came out at 54%.

As for `COc1cc(CNC(=O)/C=C/c2ccc(C(C)C)cc2)ccc1O` [Example 3, para-isopropyl-trans-N-(4-hydroxy-3-methoxybenzyl)-cinnamic acid amide], the Emax at 10 µM in assay [1] came to 97%; in assay [2], 71%. In assay [3] (0.1 mg/kg i.v.), the “Reduction of Nociceptive Behavior Relative to Controls” value turned out to be 52%.

Take `COc1cc(CNC(=O)/C=C/c2ccc(CC(C)C)cc2)ccc1O` [Example 6, para-iso-butyl-trans-N-(4-hydroxy-3-methoxybenzyl)-cinnamic acid amide]: the figures for the Emax at 10 µM in assay [1] and in assay [2] were 141% and 103%, respectively. Besides, the “Reduction of Nociceptive Behavior Relative to Controls” value in assay [3] (0.1 mg/kg i.v.) is given as 70%.

For `COc1cc(CNC(=O)/C=C/c2ccc(CC(C)(C)C)cc2)ccc1O` [Example 7, para-neo-pentyl-trans-N-(4-hydroxy-3-methoxybenzyl)-cinnamic acid amide], the Emax at 10 µM in assay [1] worked out at 142%; in assay [2], 102%.

As to `CCCCc1ccc(/C=C/C(=O)NCc2ccc(O)c(OC)c2)cc1` [Example 8, para-butyl-trans-N-(4-hydroxy-3-methoxybenzyl)-cinnamic acid amide], the figures for the Emax at 10 µM in assay [1] and in assay [2] were 132% and 110%, respectively.

Regarding `COc1cc(CNC(=O)/C=C/c2ccc(C(C)(C)C)cc2)ccc1O` [Example 4, para-tert.-Butyl-trans-N-(4-hydroxy-3-methoxybenzyl)-cinnamic acid amide], the results for the EC50 in assay [1] (FLIPR Ca2+ influx) and in assay [2] (FLIPR Ca2+ influx) were 0.129 nM and 0.147 nM, respectively. Besides, the Emax at 10 µM came to 106% in assay [1] and 115% in assay [2]. Further, the “Reduction of Nociceptive Behavior Relative to Controls” value in assay [3] (0.1 mg/kg i.v.) turned out to be 63%.

With `COc1cc(CNC(=O)/C=C/c2ccc(C)cc2)ccc1O` [Example 1, para-methyl-trans-N-(4-hydroxy-3-methoxybenzyl)-cinnamic acid amide], the Emax at 10 µM in assay [1] turned out to be 92%; in assay [2], 56%.

For `CCCCCCCCc1ccc(/C=C/C(=O)NCc2ccc(O)c(OC)c2)cc1` [Example 9, para-octyl-trans-N-(4-hydroxy-3-methoxybenzyl)-cinnamic acid amide], the figures for the Emax at 10 µM in assay [1] and in assay [2] were 126% and 97%, respectively. In addition, the “Reduction of Nociceptive Behavior Relative to Controls” value in assay [3] (0.1 mg/kg i.v.) came out at 47%.
